Laboratory results: patent US11242351B2, “Tricyclic inhibitors of the BCL6 BTB domain protein-protein interaction and uses thereof” (priority 2017, dated 2022)
Read-outs that look alike come from different tables or passages of the source.

Key:
[1] = system: BCL6 reporter construct in SuDHL4-3×BCL6-TK-Luc cells; experiment: Cell-based luciferase assay (BCL6 reporter); conditions: 48 h, read-out: Luc IC50
Experimental: Cell-Based Luciferase Assay:
A BCL6 reporter construct containing three copies of the consensus BCL6 binding site, the TK promoter, and the firefly luciferase gene was stably expressed in SuDHL4 cells after lentivirus infection and selection with Blasticidin. SuDHL4-3×BCL6-TK-Luc cells were seeded into a Viewplate 384-well assay dish at 15,000 cells/well in […] (Alpha-MEM high glucose containing 10% FBS, 25 mM HEPES, […] GlutaMAX, 100 µg/mL Normocin, and […] Gentamycin, Invitrogen). A HP D300 digital dispenser was used to dose cells with DMSO or test compounds across a 10-point range of concentrations (high dose of 10 μM), and cultures were grown in a humidified 5% CO2 incubator at 37° C. After two days, plates were removed from the incubator and equilibrated to room temperature. An equal volume of neolite reporter gene assay reagent was added to each well, and samples were processed according to the manufacturer's instructions (Perkin Elmer). The luminescent signal was measured using an Envision plate reader equipped with a US-Luminescence detector.

Karpas422 cells = experiment: Tumor cell growth inhibition assay; format: cell-based; conditions: Homo sapiens, KARPAS-422, 144 h, read-out: GI Karpas EC50
Experimental: Tumor Cell Growth Inhibition Assay:
Karpas422 cells were seeded into a 96-well plate at 2,000 cells/well in 150 μl medium (Alpha-MEM containing 10% FBS, […] Normocin, and […] Gentamycin, Invitrogen). A HP D300 digital dispenser was used to dose cells with DMSO or test compounds across a 10-point range of concentrations (high dose of 5 μM), and cultures were grown in a humidified 5% CO2 incubator at 37° C. After six days, plates were removed from incubator and equilibrated to room temperature. An equal volume of ATPlite assay reagent was added to each well, and samples were processed according to the manufacturer's instructions (Perkin Elmer). The luminescent signal was measured using an Envision plate reader equipped with a US-Luminescence detector.

[2] = molecular target: BCL6 BTB domain (biotin-thrombin-BCL6 amino acids 1-129) (Homo sapiens (Human), UniProt P41182); experiment: Surface Plasmon Resonance (SPR) assay; format: binding; conditions: Biacore T200, single cycle kinetic analysis
Experimental: Surface Plasmon Resonance (SPR) Assay
SPR studies were performed using a Biacore™ T200 instrument (GE Health Sciences Inc.). […] The Biacore flow rate was set at 100 μl/min. […] Curve fitting and KD calculations were performed with the Biacore T200 Evaluation software (GE Health Sciences Inc).

[3] = SuDHL4-3×BCL6-TK-Luc cells, two days
[4] = Karpas422 cells, six days, ATPlite

| Compound | IC50 [1, 3] [nM] | EC50 (Karpas422 cells; [4]) [nM] | Kd [2] [nM] | IC50 [1] [nM] | EC50 (Karpas422 cells) [nM] |
| --- | --- | --- | --- | --- | --- |
| C[C@H]1CN(CCC(F)(F)F)CCN1c1cc(NC(=O)Cn2cc(-c3cc(C(N)=O)c(O)c(F)c3F)c3c(=O)n4c(nc32)CCC4)c(Cl)cn1 [I-35, (S)-5-(1-(2-((5-chloro-2-(2-methyl-4-(3,3,3-trifluoropropyl)piperazin-1-yl)pyridin-4-yl)amino)-2-oxoethyl)-4-oxo-4,6,7,8-tetrahydro-1H-dipyrrolo[1,2-a:2′,3′-d]pyrimidin-3-yl)-3,4-difluoro-2-hydroxy-benzamide] | 237 | 194 | 24.3 |  |  |
| CN1CCN(c2cc(NC(=O)Cn3cc(-c4cc(C(N)=O)c(O)c(F)c4F)c4c(=O)n5c(nc43)CCC5)c(Cl)cn2)CC1 [I-36, 5-(1-(2-((5-chloro-2-(4-methylpiperazin-1-yl)pyridin-4-yl)amino)-2-oxoethyl)-4-oxo-4,6,7,8-tetrahydro-1H-dipyrrolo[1,2-a:2′,3′-d]pyrimidin-3-yl)-3,4-difluoro-2-hydroxy-benzamide] |  |  | 23.2 | 701 | 480 |
| CO[C@@H](C)CN1CCN(c2cc(NC(=O)Cn3cc(-c4cc(C(N)=O)c(O)c(F)c4F)c4c(=O)n5c(nc43)CCC5)c(Cl)c(F)n2)[C@@H](C)C1 [I-37, 5-(1-(2-((3-chloro-2-fluoro-6-((S)-4-((S)-2-methoxypropyl)-2-methylpiperazin-1-yl)pyridin-4-yl)amino)-2-oxoethyl)-4-oxo-4,6,7,8-tetrahydro-1H-dipyrrolo[1,2-a:2′,3′-d]pyrimidin-3-yl)-3,4-difluoro-2-hydroxy-benzamide] | 109 | 113 | 14.4 |  |  |
| C[C@@H](C1CC1)N1CCN(c2cc(NC(=O)Cn3cc(-c4cc(C(N)=O)c(O)c(F)c4F)c4c(=O)n5c(nc43)CCC5)c(Cl)c(F)n2)[C@@H](C)C1 [I-38, 5-(1-(2-((3-chloro-6-((S)-4-((S)-1-cyclo-propylethyl)-2-methyl-piperazin-1-yl)-2-fluoropyridin-4-yl)amino)-2-oxoethyl)-4-oxo-4,6,7,8-tetrahydro-1H-dipyrrolo [1,2-a:2′,3′-d]pyrimidin-3-yl)-3,4-difluoro-2-hydroxybenzamide] | 193 | 444 | 32.5 |  |  |
| C[C@H](C1CC1)N1CCN(c2cc(NC(=O)Cn3cc(-c4cc(C(N)=O)c(O)c(F)c4F)c4c(=O)n5c(nc43)CCC5)c(Cl)c(F)n2)[C@@H](C)C1 [I-39, 5-(1-(2-((3-chloro-6-((S)-4-((R)-1-cyclo-propylethyl)-2-methyl-piperazin-1-yl)-2-fluoropyridin-4-yl)amino)-2-oxoethyl)-4-oxo-4,6,7,8-tetrahydro-1H-dipyrrolo[1,2-a:2′,3′-d]pyrimidin-3-yl)-3,4-difluoro-2-hydroxy-benzamide] | 210 | 384 | 34.9 |  |  |
| C[C@H]1CN(CCC(F)(F)F)CCN1c1cc(NC(=O)Cn2cc(-c3cc(C(N)=O)c(O)c(F)c3F)c3c(=O)n4c(nc32)CCC4)c(Cl)c(F)n1 [I-40, (S)-5-(1-(2-((3-chloro-2-fluoro-6-(2-methyl-4-(3,3,3-trifluoropropyl)piperazin-1-yl)pyridin-4-yl)amino)-2-oxoethyl)-4-oxo-4,6,7,8-tetrahydro-1H-dipyrrolo[1,2-a:2′,3′-d]pyrimidin-3-yl)-3,4-difluoro-2-hydroxy-benzamide] | 187 | 273 | 134 |  |  |
| C[C@H]1COCCN1c1cc(NC(=O)Cn2cc(-c3cc(C(N)=O)c(O)c(F)c3F)c3c(=O)n4c(nc32)CCCC4)c(Cl)c(F)n1 [I-42, (S)-5-(1-(2-((3-chloro-2-fluoro-6-(3-methyl-morpholino)pyridin-4-yl)amino)-2-oxoethyl)-4-oxo-1,4,6,7,8,9-hexahydropyrido [1,2-a]pyrrolo[2,3-d]pyrimidin-3-yl)-3,4-difluoro-2-hydroxy-benzamide] | 407 | 331 | 29 |  |  |
| CCN1CCN(c2cc(NC(=O)Cn3cc(-c4cc(C(N)=O)c(O)c(F)c4F)c4c(=O)n5c(nc43)CCCC5)c(Cl)c(F)n2)[C@@H](C)C1 [I-43, (S)-5-(1-(2-((3-chloro-6-(4-ethyl-2-methyl-piperazin-1-yl)-2-fluoropyridin-4-yl)amino)-2-oxoethyl)-4-oxo-1,4,6,7,8,9-hexahydropyrido [1,2-a]pyrrolo[2,3-d]pyrimidin-3-yl)-3,4-difluoro-2-hydroxy-benzamide] | 232 | 240 | 42.8 |  |  |
| C[C@H]1CN(C2COC2)CCN1c1cc(NC(=O)Cn2cc(-c3cc(C(N)=O)c(O)c(F)c3F)c3c(=O)n4c(nc32)CCCC4)c(Cl)c(F)n1 [I-44, (S)-5-(1-(2-((3-chloro-2-fluoro-6-(2-methyl-4-(oxetan-3-yl)piperazin-1-yl)pyridin-4-yl)amino)-2-oxo-ethyl)-4-oxo-1,4,6,7,8,9-hexahydropyrido [1,2-a]pyrrolo[2,3-d]pyrimidin-3-yl)-3,4-difluoro-2-hydroxy-benzamide] |  |  | 25 | 104 | 310 |
| C[C@H]1CN(CC2CC2)CCN1c1cc(NC(=O)Cn2cc(-c3cc(C(N)=O)c(O)c(F)c3F)c3c(=O)n4c(nc32)CCCC4)c(Cl)c(F)n1 [I-45, (S)-5-(1-(2-((3-chloro-6-(4-(cyclopropyl-methyl)-2-methyl-piperazin-1-yl)-2-fluoropyridin-4-yl)amino)-2-oxoethyl)-4-oxo-1,4,6,7,8,9-hexahydropyrido [1,2-a]pyrrolo[2,3-d]pyrimidin-3-yl)-3,4-difluoro-2-hydroxy-benzamide] |  |  | 31.8 | 469 | 1330 |
| C[C@H]1CN(CC(CO)CO)CCN1c1cc(NC(=O)Cn2cc(-c3cc(C(N)=O)c(O)c(F)c3F)c3c(=O)n4c(nc32)CCC4)c(Cl)c(F)n1 [I-46, (S)-5-(1-(2-((3-chloro-2-fluoro-6-(4-(3-hydroxy-2-(hydroxymethyl)propyl)-2-methylpiperazin-1-yl)pyridin-4-yl)amino)-2-oxoethyl)-4-oxo-4,6,7,8-tetrahydro-1H-dipyrrolo[1,2-a:2′,3′-d]pyrimidin-3-yl)-3,4-difluoro-2-hydroxybenzamide] | 935 | 487 | 3.13 |  |  |
| NC(=O)c1cc(-c2cn(CC(=O)Nc3cc(N4CCCC4)nc(F)c3Cl)c3nc4n(c(=O)c23)CCC4)c(F)c(F)c1O [I-47, 5-(1-(2-((3-chloro-2-fluoro-6-(pyrrolidin-1-yl)pyridin-4-yl)amino)-2-oxoethyl)-4-oxo-4,6,7,8-tetrahydro-1H-dipyrrolo[1,2-a:2′,3′-d]pyrimidin-3-yl)-3,4-difluoro-2-hydroxy-benzamide] | 166 | 212 | 23.9 |  |  |
| C[C@H]1CN(CC(F)F)CCN1c1cc(NC(=O)Cn2cc(-c3cc(C(N)=O)c(O)c(F)c3F)c3c(=O)n4c(nc32)CCC4)c(Cl)c(F)n1 [I-48, (S)-5-(1-(2-((3-chloro-6-(4-(2,2-difluoroethyl)-2-methylpiperazin-1-yl)-2-fluoropyridin-4-yl)amino)-2-oxoethyl)-4-oxo-4,6,7,8-tetrahydro-1H-dipyrrolo[1,2-a:2′,3′-d]pyrimidin-3-yl)-3,4-difluoro-2-hydroxy-benzamide] | 96.4 | 64.6 | 13.7 |  |  |
| C[C@H]1CN(C2COC2)CCN1c1cc(NC(=O)Cn2cc(-c3cc(C(N)=O)c(O)c(F)c3F)c3c(=O)n4c(nc32)CCCCC4)c(Cl)c(F)n1 [I-50, (S)-5-(1-(2-((3-chloro-2-fluoro-6-(2-methyl-4-(oxetan-3-yl)piperazin-1-yl)pyridin-4-yl)amino)-2-oxo-ethyl)-4-oxo-4,6,7,8,9,10-hexahydro-1H-pyrrolo [2′,3′:4,5]pyrimido [1,2-a]azepin-3-yl)-3,4-difluoro-2-hydroxybenzamide] | 395 | 475 | 43 |  |  |
| C[C@H]1COCCN1c1cc(NC(=O)Cn2cc(-c3cc(C(N)=O)c(O)c(F)c3F)c3c(=O)n4c(nc32)CCCCC4)c(Cl)c(F)n1 [I-51, (S)-5-(1-(2-((3-chloro-2-fluoro-6-(3-methyl-morpholino)pyridin-4-yl)amino)-2-oxoethyl)-4-oxo-4,6,7,8,9,10-hexahydro-1H-pyrrolo [2′,3′:4,5]pyrimido [1,2-a]azepin-3-yl)-3,4-difluoro-2-hydroxy-benzamide] | 3050 | 974 | 89.1 |  |  |
